In US10457811B2, “Surface-modified calcium oxide” (Kalkfabrik Netstal AG, priority 2012, dated 2019):
Where a name gives a salt, the structure may show the parent alone.

Test system: Erwinia amylovora strain 385 (Ea385)
Assay: Fire blight test on inoculated apple blossoms (Gala)
Assay type: in vivo
Conditions: 0.06% spray solution, 1 hour after inoculation, reduction of infestation after 6 days
Procedure: Finely pulverized CaO was coated with stearic acid (5% by weight of stearic acid relative to CaO) and was tested, as dust on apple blossoms, against fire blight. The standardized tests were carried out at an institute certified therefor (bio-ferm Research GmbH, DE). Apple blossoms of the Gala type were placed, with the pedicel, in a 10% saccharose solution and were incubated in a humid chamber. Inoculation/pathogen: Erwinia amylovora strain 385 (Ea385), as a bacterial suspension of fresh cultures with 10 million cells per milliliter, was sprayed onto the blossoms. Infested blossoms were treated, 1 hour after inoculation, with the coated CaO as dust (test series) or were subjected to the standard treatment (streptomycin sulfate 0.06% as spray solution; control and benchmark). Evaluation: The blossoms were investigated after 6 days, and analyzed in terms of the pathogen-typical features of an infection (slime spots). 39% of the blossoms without treatment were infested with fire blight. The reduction of the infestation by means of the corresponding treatment was evaluated, in terms of the efficacy of the treatment.

## [H]/N=C(/N)N[C@H]1[C@H](O)[C@@H](O)[C@H](O[C@@H]2O[C@@H](C)[C@](O)(C=O)[C@H]2O[C@@H]2O[C@@H](CO)[C@H](O)[C@@H](O)[C@@H]2NC)[C@@H](N/C(N)=N\[H])[C@@H]1O [Streptomycin sulfate, streptomycin sulfate]
  Efficacy of the treatment: 68%
